Experimental data: the CheMixHub viscosity set
Values joined by “and” are separate entries in the source; they are usually repeats but may differ in a detail not shown here. Identical values can stand only once.

Experiment: xn = mol fraction of the nth substance listed

COC(=O)c1ccccc1 + CS(C)=O
303.15 K, 101 kPa
Settings | viscosity [mPa·s]
x1 = 0.1946 | 1.757
x1 = 0.2734 | 1.752
x1 = 0.3608 | 1.751
x1 = 0.4584 | 1.751
x1 = 0.5683 | 1.723
x1 = 0.6931 | 1.682

C[N+](C)(C)C.[OH-] + CS(C)=O
viscosity [mPa·s], 100 kPa
Settings | 298.15 K | 303.15 K | 308.15 K | 313.15 K
x1 = 0.0177 | 2.05 | 1.87 | 1.73 | 1.63
x1 = 0.0538 | 2.18 | 2.01 | 1.87 | 1.77
x1 = 0.091 | 2.24 | 2.07 | 1.94 | 1.86
x1 = 0.1294 | 2.34 | 2.18 | 2.06 | 1.98
x1 = 0.1691 | 2.44 | 2.3 | 2.18 | 2.1
x1 = 0.2101 | 2.55 | 2.42 | 2.3 | 2.23
x1 = 0.2314 | 2.61 | 2.48 | 2.36 | 2.3
x1 = 0.2961 | 2.76 | 2.64 | 2.54 | 2.48
x1 = 0.3645 | 2.9 | 2.81 | 2.71 | 2.65
x1 = 0.4366 | 3.04 | 2.94 | 2.86 | 2.81
x1 = 0.4868 | 3.12 | 3.03 | 2.95 | 2.91
x1 = 0.5388 | 3.18 | 3.1 | 3.02 | 2.98
x1 = 0.6206 | 3.25 | 3.17 | 3.09 | 3.07
x1 = 0.7071 | 3.26 | 3.2 | 3.12 | 3.1
x1 = 0.7677 | 3.23 | 3.18 | 3.1 | 3.06
x1 = 0.8307 | 3.15 | 3.12 | 3.05 | 3.02
x1 = 0.8963 | 3.03 | 3.02 | 2.94 | 2.9
x1 = 0.9647 | 2.86 | 2.84 | 2.76 | 2.71

O=C(O)CC(=O)O + C[N+](C)(C)CCO.[Cl-]
viscosity [mPa·s]
Settings | 293.15 K | 293.2 K | 298.15 K | 303.15 K | 303.2 K | 308.15 K | 313.15 K | 313.2 K | 318.15 K | 323.15 K
100 kPa, x2 = 0.5 | 2016 | – | 1389 | 982.9 | – | 710.7 | 524.5 | – | 393.9 | 301.2
101 kPa, x2 = 0.5 | 1651 | – | 1084 | 679.6 | – | 486.4 | 372.5 | – | 286.5 | 207.2
101.3 kPa, x2 = 0.502 | – | 1600 | – | – | 1029 | – | – | 615 | – | –

CCOC(=O)CCl + Cc1cc(C)cc(C)c1
viscosity [mPa·s], 101.3 kPa
Settings | x1 = 0.1123 | x1 = 0.2035 | x1 = 0.2999 | x1 = 0.4019 | x1 = 0.4987 | x1 = 0.5997 | x1 = 0.6963 | x1 = 0.7974 | x1 = 0.8954
298.15 K | 0.693 | 0.712 | 0.745 | 0.775 | 0.811 | 0.853 | 0.902 | 0.964 | 1.023
303.15 K | 0.653 | 0.669 | 0.698 | 0.725 | 0.759 | 0.798 | 0.841 | 0.899 | 0.949
308.15 K | 0.612 | 0.627 | 0.652 | 0.677 | 0.708 | 0.741 | 0.779 | 0.829 | 0.874

CCCCOCCO + Cc1ccc(C)cc1
viscosity [mPa·s], 101 kPa
Settings | 298.15 K | 308.15 K
x1 = 0.0541 | 0.566 | 0.647
x1 = 0.1518 | 0.625 | 0.725
x1 = 0.2496 | 0.695 | 0.817
x1 = 0.3502 | 0.784 | 0.933
x1 = 0.451 | 0.894 | 1.076
x1 = 0.5028 | 0.961 | 1.162
x1 = 0.5533 | 1.033 | 1.256
x1 = 0.6489 | 1.194 | 1.465
x1 = 0.7493 | 1.404 | 1.739
x1 = 0.8519 | 1.676 | 2.092
x1 = 0.9561 | 2.029 | 2.551

CCOC(=O)CCl + Cc1ccc(C)cc1
viscosity [mPa·s], 101.3 kPa
Settings | x1 = 0.0994 | x1 = 0.1995 | x1 = 0.3008 | x1 = 0.3992 | x1 = 0.5001 | x1 = 0.601 | x1 = 0.6994 | x1 = 0.7968 | x1 = 0.8943
298.15 K | 0.635 | 0.663 | 0.699 | 0.735 | 0.783 | 0.832 | 0.886 | 0.949 | 1.017
303.15 K | 0.599 | 0.624 | 0.656 | 0.691 | 0.734 | 0.778 | 0.827 | 0.882 | 0.945
308.15 K | 0.563 | 0.586 | 0.615 | 0.646 | 0.686 | 0.726 | 0.768 | 0.816 | 0.874

CCCCOCCO + Cc1cccc(C)c1
viscosity [mPa·s], 101 kPa
Settings | 298.15 K | 308.15 K
x1 = 0.056 | 0.625 | 0.534
x1 = 0.152 | 0.711 | 0.602
x1 = 0.2496 | 0.813 | 0.686
x1 = 0.3506 | 0.941 | 0.786
x1 = 0.4512 | 1.095 | 0.908
x1 = 0.5022 | 1.185 | 0.979
x1 = 0.5529 | 1.284 | 1.056
x1 = 0.6487 | 1.501 | 1.225
x1 = 0.7505 | 1.781 | 1.442
x1 = 0.8511 | 2.122 | 1.704
x1 = 0.9549 | 2.56 | 2.037

CCCCOCCO + Cc1ccccc1
viscosity [mPa·s], 101 kPa
Settings | 298.15 K | 308.15 K
x1 = 0.055 | 0.593 | 0.531
x1 = 0.1509 | 0.678 | 0.597
x1 = 0.2513 | 0.784 | 0.679
x1 = 0.3489 | 0.909 | 0.775
x1 = 0.4511 | 1.066 | 0.896
x1 = 0.5015 | 1.156 | 0.965
x1 = 0.5525 | 1.257 | 1.042
x1 = 0.6512 | 1.483 | 1.215
x1 = 0.7494 | 1.759 | 1.425
x1 = 0.8498 | 2.105 | 1.689
x1 = 0.9541 | 2.551 | 2.03

O=C(OCc1ccccc1)c1ccccc1 + Cc1ccccc1
298.15 K, 101 kPa
Settings | viscosity [mPa·s]
x1 = 0.2369 | 1.183
x1 = 0.4262 | 2.015
x1 = 0.6505 | 3.614
x1 = 0.789 | 5.08
x1 = 0.9002 | 6.66

c1ccc2c(c1)CCCC2 + Cc1ccccc1
101.3 kPa
Settings | viscosity
298 K, x2 = 0.2 | 1.55 mPa·s
298.1 K, x2 = 0.4 | 1.133 mPa·s
298.2 K, x2 = 0.6 | 0.9208 mPa·s
298.2 K, x2 = 0.8 | 0.7036 mPa·s
303.2 K, x2 = 0.5 | 0.9625 mPa·s
308.2 K, x2 = 0.4 | 0.9772 mPa·s
308.2 K, x2 = 0.6 | 0.8034 mPa·s
308.2 K, x2 = 0.8 | 0.6177 mPa·s and 0.6155 mPa·s
313.1 K, x2 = 0.2 | 1.209 mPa·s
313.1 K, x2 = 0.5 | 0.8373 mPa·s
318.1 K, x2 = 0.4 | 0.8532 mPa·s
318.2 K, x2 = 0.6 | 0.7034 mPa·s
318.2 K, x2 = 0.8 | 0.553 mPa·s
323.1 K, x2 = 0.5 | 0.7376 mPa·s
